Data from patent publication US11066409B2, “Bicyclic nitrogen-containing heterocyclic derivatives and pharmaceutical composition comprising the same” (Shionogi & Co., Ltd., priority 2016, dated 2021).

Each molecule was assayed against human P2X7 receptor (Homo sapiens (Human), UniProt Q99572, R270H) (assay: Evaluation of a human P2X7 receptor inhibitory activity (Yo-Pro uptake, BzATP stimulation, FLIPR TETRA)). Conditions: 1321N1 cells stably expressing human P2X7 receptor, Yo-Pro fluorescence.
Sequence of human P2X7 receptor (Q99572 whole entry R270H): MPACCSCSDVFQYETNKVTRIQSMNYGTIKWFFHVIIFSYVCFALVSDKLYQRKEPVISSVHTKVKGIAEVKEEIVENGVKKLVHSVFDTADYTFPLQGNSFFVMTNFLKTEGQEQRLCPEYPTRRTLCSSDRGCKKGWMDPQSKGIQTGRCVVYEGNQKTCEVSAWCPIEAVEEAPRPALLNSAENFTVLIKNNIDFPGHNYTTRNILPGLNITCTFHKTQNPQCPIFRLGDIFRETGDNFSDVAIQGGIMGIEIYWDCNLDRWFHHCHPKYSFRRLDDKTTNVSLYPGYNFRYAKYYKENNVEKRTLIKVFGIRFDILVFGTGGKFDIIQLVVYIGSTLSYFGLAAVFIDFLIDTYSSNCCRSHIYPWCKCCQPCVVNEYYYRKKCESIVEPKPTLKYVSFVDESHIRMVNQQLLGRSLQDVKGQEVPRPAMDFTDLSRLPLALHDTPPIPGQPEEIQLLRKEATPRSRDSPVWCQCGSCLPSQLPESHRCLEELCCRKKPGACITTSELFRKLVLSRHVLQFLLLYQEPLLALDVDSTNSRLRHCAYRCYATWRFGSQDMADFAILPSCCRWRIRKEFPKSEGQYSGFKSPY
Type: cell-based
Experimental: Evaluation of a human P2X7 receptor inhibitory activity Stably expressing cell line (1321N1 cell transfected with the human P2X7 receptor gene (GenBank accession number NM_002562.5 including T606C and G952A SNP)) was used. The cells were seeded in a 384-well microtiter plate at a concentration of 8000 cells/well and cultured in the medium (10% fetal bovine serum, 25 mM HEPES, 1% penicillin and streptomycin in DMEM) for one day at 37° C. under 5% carbon dioxide atmosphere. After replacing with 20 μL of the HBSS buffer (20 mM HEPES, 55.6 mM D-glucose, 1× HBSS(−), pH7.4-7.5), 15 μL of 17.3 μM Yo-Pro solution in the HBSS buffer was added. The plate was placed in high-throughput cellular screening system FLIPR TETRA (Molecullar Devices, LLC.) and 15 μL of 130 μM BzATP solution in the HBSS buffer was added. Measurement of fluorescence intensity by FLIPR TETRA was started. After eight minutes, 15 μL of DMSO solutions containing different concentrations of the compound of the present invention as prepared by dilution with the HBSS buffer were dispensed to each well through the built-in automatic dispenser, and the measurement of fluorescence intensity was continued for 20 minutes. The maximum fluorescence intensity without the compound of the present invention is calculated as 0% inhibition and the maximum fluorescence intensity when the reference compound was added is calculated as 100% inhibition. Changing values of fluorescence intensity by the compound of the present invention were calculated by difference between maximum and minimum fluorescence intensity for 20 minutes. Inhibition ratios (%) were calculated from the following equation:
[formula] IC50 was calculated using logistic approximation.
As for IC50 value, value to below 10 nmol/L is represented as “A”, value from 10 nmol/L to below 100 nmol/L is represented as “B”, value from 100 nmol/L to below 500 nmol/L is represented as “C”, and value from 500 nmol/L to below 1 μmol/L is represented as “D”.
In the case of Cc1ccccc1Nc1nc(=O)cc2n1C(c1ccccc1)CCC2 (stereo not drawn) [Compound I-0004], the IC50 is reported as 37 nM. COc1ccc(NC2=NC(=O)N(C)C3=NCC(c4ccc(F)cc4)N23)c(C)c1F (stereo not drawn) [Compound I-0151] showed an IC50 of 14 nM. COc1ccc(/N=c2\[nH]c(=O)c(F)c3n2C(c2ccc(F)cc2)CC3)c(C)n1 (stereo not drawn) [Compound I-0069] gave an IC50 of 10 nM. For CCN1C(=O)N=C(Nc2cc(C)c(C)cc2C)N2C1=NCC2c1ccccc1 (stereo not drawn) [Compound I-0107], the IC50 was 25 nM.

Same assay, conditions: 1321N1 cells stably expressing human P2X7 receptor, Yo-Pro fluorescence, class symbols
For COc1ccc(NC2=NC(=O)N(C)C3=NCC(c4ccc(F)cc4)N23)c(C)c1 (stereo not drawn) [Compound I-0130], the IC50 was 10 to 100 nM. Work on Cc1cc2c(cc1/N=c1\[nH]c(=O)c(F)c3n1C(c1ccc(F)cc1F)CC3)COC2 (stereo not drawn) [Compound I-0073] yielded an IC50 of 10 to 100 nM. Work on Cc1cc(OC(F)F)ccc1/N=c1\[nH]c(=O)cc2n1C(c1cc(F)cc(F)c1)CC2 (stereo not drawn) [Compound I-0056] yielded an IC50 of 10 to 100 nM. COc1ccc(NC2=NC(=O)N(C)C3=NCC(c4ccc(F)c(F)c4)N23)c(C)c1 (stereo not drawn) [Compound I-0125] was tested, and the IC50 was 10 to 100 nM. For Cc1ccc(NC2=NC(=O)N(C)C3=NCC(c4cc(F)cc(F)c4)N23)c(C)n1 (stereo not drawn) [Compound I-0114], the IC50 was 100 to 500 nM. Molecule COc1cc(C)c(Nc2nc(=O)c(F)c3n2C(c2ccc(F)cc2)CN3C)cc1OC (stereo not drawn) [Compound I-0152] has an IC50 of 10 to 100 nM. In the case of COc1nc(C)c(Nc2nc(=O)c(F)c3n2C(c2cc(F)cc(F)c2)CC3)cc1F (stereo not drawn) [Compound I-0141], the IC50 is reported as 10 to 100 nM. In the case of COc1cc(Nc2nc(=O)cc3n2C(c2ccc(F)cc2)CC3)c(C)cc1Cl (stereo not drawn) [Compound I-0033], the IC50 is reported as 10 to 100 nM. Cc1ccccc1Nc1nc(=O)cc2n1C(c1ccccc1)CC2 (stereo not drawn) [Compound I-0015] showed an IC50 of 10 to 100 nM. CCN1C(=O)N=C(Nc2cc(C)c(C)cc2C)N2C1=NCC2c1ccc(F)cc1 (stereo not drawn) [Compound I-0109] showed an IC50 of 10 to 100 nM. In the case of COc1ccc(NC2=NC(=O)N(C)C3=NCC(c4ccc(F)cc4)N23)c(C)n1 (stereo not drawn) [Compound I-0119], the IC50 is reported as 10 to 100 nM. Work on Cc1ccc(CCO)cc1NC1=NC(=O)N(C)C2=NCC(c3cc(F)c(F)c(F)c3)N12 (stereo not drawn) [Compound I-0194] yielded an IC50 of 10 to 100 nM. COc1cc(/N=c2\[nH]c(=O)c(F)c3n2C(c2ccc(F)cc2F)CC3)c(C)cc1F (stereo not drawn) [Compound I-0062] gave an IC50 of 10 to 100 nM. Cc1nc2cc(C)c(/N=c3\[nH]c(=O)cc4n3C(c3cc(F)cc(F)c3)CC4)cc2s1 (stereo not drawn) [Compound I-0053] was tested, and the IC50 was 10 to 100 nM. CCOc1nc(C)c(Nc2nc(=O)cc3n2C(c2ccc(F)cc2F)CC3)cc1F (stereo not drawn) [Compound I-0082] was tested, and the IC50 was 10 to 100 nM. With Cc1nc2cc(C)c(Nc3nc(=O)cc4n3C(c3ccc(F)cc3)CC4)cc2s1 (stereo not drawn) [Compound I-0026] the IC50 was under 10 nM. COc1cnc(C)c(Nc2nc(=O)c(F)c3n2C(c2cc(F)cc(F)c2)CC3)c1 (stereo not drawn) [Compound I-0123] showed an IC50 of 10 to 100 nM. COc1ccc(/N=c2\[nH]c(=O)c(F)c3n2C(c2ccc(F)cc2F)CC3)c(C)n1 (stereo not drawn) [Compound I-0093] gave an IC50 of 100 to 500 nM. With COc1ccc(NC2=NC(=O)N(C)C3=NCC(c4cc(F)cc(F)c4)N23)c(C)c1 (stereo not drawn) [Compound I-0122] the IC50 was 10 to 100 nM. Work on COc1ccc(Nc2nc(=O)cc3n2C(c2ccc(F)cc2)CC3)c(C)c1 (stereo not drawn) [Compound I-0023] yielded an IC50 of under 10 nM. In the case of Cc1ccc(NC2=NC(=O)N(C)C3=NCC(c4ccc(F)c(F)c4)N23)c(C)n1 (stereo not drawn) [Compound I-0115], the IC50 is reported as 100 to 500 nM. CN1C(=O)N=C(NCc2cccc(F)c2)N2C1=NCC2c1cc(F)c(F)c(F)c1 (stereo not drawn) [Compound I-0197] was tested, and the IC50 was 10 to 100 nM. Cc1cc2c(cc1Nc1nc(=O)cc3n1C(c1ccccc1)CC3)COC2 (stereo not drawn) [Compound I-0040] was tested, and the IC50 was 10 to 100 nM. In the case of CCN1C(=O)N=C(Nc2cc(OC)c(OC)nc2C)N2C1=NCC2c1ccc(F)cc1 (stereo not drawn) [Compound I-0118], the IC50 is reported as 100 to 500 nM. With COc1cc(C)c(NC2=NC(=O)N(C)C3=NCC(c4cc(F)cc(F)c4)N23)cc1OC (stereo not drawn) [Compound I-0132] the IC50 was 10 to 100 nM. In the case of CCc1ccc(CO)cc1NC1=NC(=O)NC2=NCC(c3cc(F)c(F)c(F)c3)N21 (stereo not drawn) [Compound I-0180], the IC50 is reported as 10 to 100 nM. Cc1ccc(C=O)cc1NC1=NC(=O)N(C)C2=NCC(c3cc(F)c(F)c(F)c3)N12 (stereo not drawn) [Compound I-0191] showed an IC50 of 10 to 100 nM. With COc1ccc(Nc2nc(=O)cc3n2C(c2cccc(F)c2)CC3)c(C)c1 (stereo not drawn) [Compound I-0049] the IC50 was under 10 nM. In the case of COc1ccc(Nc2nc(=O)cc3n2C(c2ccc(F)c(F)c2)CC3)c(C)c1 (stereo not drawn) [Compound I-0041], the IC50 is reported as under 10 nM. Molecule COc1ccc(C)c(Nc2nc(=O)n(C)c3ncn(Cc4ccccc4)c23)c1 [Compound I-0173] has an IC50 of 500 to 1000 nM. Work on Cc1nc2cc(C)c(Nc3nc(=O)c(F)c4n3C(c3ccc(F)cc3F)CC4)cc2s1 (stereo not drawn) [Compound I-0058] yielded an IC50 of under 10 nM. COc1ccc(Nc2nc(=O)cc3n2C(c2ccccc2)CN3C)c(C)c1 (stereo not drawn) [Compound I-0110] was tested, and the IC50 was under 10 nM. COc1ccc(Nc2nc(=O)cc3n2C(c2ccccc2)CN3C)c(C)c1 (stereo not drawn) [Compound I-0104] was tested, and the IC50 was 10 to 100 nM. COc1cc(C)c(Nc2nc(=O)nc3n2C(c2cc(F)c(F)c(F)c2)CN3)cc1OC (stereo not drawn) [Compound I-0153] showed an IC50 of 10 to 100 nM. For Cc1cc(Nc2nc(=O)cc3n2C(c2ccc(F)c(Cl)c2)CC3)c(C)cc1Cl (stereo not drawn) [Compound I-0012], the IC50 was under 10 nM. In the case of CCOc1ccc(/N=c2\[nH]c(=O)cc3n2C(c2ccc(F)cc2F)CC3)c(CC)n1 (stereo not drawn) [Compound I-0075], the IC50 is reported as 10 to 100 nM. With CCOc1ccc(/N=c2\[nH]c(=O)c(F)c3n2C(c2ccc(F)cc2F)CC3)c(C)n1 (stereo not drawn) [Compound I-0081] the IC50 was 10 to 100 nM. COc1ccc(Nc2nc(=O)n(C)c3ncn(Cc4ccccc4)c23)c(C)c1 [Compound I-0174] gave an IC50 of 100 to 500 nM. In the case of Cc1ccc(OCC#N)cc1NC1=NC(=O)N(C)C2=NCC(c3cc(F)c(F)c(F)c3)N12 (stereo not drawn) [Compound I-0200], the IC50 is reported as 10 to 100 nM. Cc1ccc(OCCS(C)(=O)=O)cc1NC1=NC(=O)N(C)C2=NCC(c3cc(F)c(F)c(F)c3)N12 (stereo not drawn) [Compound I-0199] showed an IC50 of 10 to 100 nM. With COc1ccc(Nc2nc(=O)cc3n2C(c2ccc(F)c(Cl)c2)CC3)c(C)c1 (stereo not drawn) [Compound I-0037] the IC50 was under 10 nM. In the case of COc1ccc(Nc2nc(=O)c(C)c3n2C(c2cc(F)cc(F)c2)CC3)c(C)n1 (stereo not drawn) [Compound I-0087], the IC50 is reported as 10 to 100 nM. For CCc1nc(OC)ccc1NC1=NC(=O)N(C)C2=NCC(c3cc(F)cc(F)c3)N12 (stereo not drawn) [Compound I-0155], the IC50 was 10 to 100 nM. Work on COc1cc(NC2=NC(=O)N(C)C3=NCC(c4ccc(F)c(F)c4)N23)c(C)nc1OC (stereo not drawn) [Compound I-0116] yielded an IC50 of 100 to 500 nM. In the case of COc1ccc(C)c(Nc2nc(=O)c(F)c3n2C(c2cc(F)c(F)c(F)c2)CN3)c1 (stereo not drawn) [Compound I-0166], the IC50 is reported as 10 to 100 nM. With COc1cc(C)c(Nc2nc(=O)cc3n2C(c2cccc(F)c2)CC3)cc1OC (stereo not drawn) [Compound I-0018] the IC50 was 10 to 100 nM. For Cc1cc2c(cc1/N=c1\[nH]c(=O)c(F)c3n1C(c1ccc(F)cc1)CC3)COC2 (stereo not drawn) [Compound I-0074], the IC50 was under 10 nM. With CCOc1cc(NC2=NC(=O)N(C)C3=NCC(c4cc(F)c(F)c(F)c4)N23)c(C)cc1F (stereo not drawn) [Compound I-0157] the IC50 was 10 to 100 nM. In the case of COc1ccc(C)c(NC2=NC(=O)N(C)C3=NCC(c4ccc(F)cc4)N23)c1 (stereo not drawn) [Compound I-0129], the IC50 is reported as 10 to 100 nM. Cc1ccc(O[C@H]2C[C@@H](CO)C2)cc1NC1=NC(=O)N(C)C2=NCC(c3cc(F)c(F)c(F)c3)N12 (stereo partly drawn) [Compound I-0185] was tested, and the IC50 was 10 to 100 nM. For Cc1cc2c(cc1Nc1nc(=O)cc3n1C(c1ccc(F)cc1)CC3)COC2 (stereo not drawn) [Compound I-0067], the IC50 was under 10 nM. In the case of COc1cc(C)c(Nc2nc(=O)cc3n2C(c2ccc(F)cc2)CC3)cc1OC (stereo not drawn) [Compound I-0017], the IC50 is reported as 10 to 100 nM. Work on Cc1c(Cl)cccc1Nc1nc(=O)cc2n1C(c1cccc(Cl)c1)CC2 (stereo not drawn) [Compound I-0008] yielded an IC50 of under 10 nM. For COc1cc(C)c(Nc2nc(=O)cc3n2C(c2ccccc2)CC3)cc1OC (stereo not drawn) [Compound I-0010], the IC50 was under 10 nM. In the case of COc1cc(/N=c2\[nH]c(=O)cc3n2C(c2cc(F)cc(F)c2)CC3)c(C)cc1F (stereo not drawn) [Compound I-0063], the IC50 is reported as 10 to 100 nM. COc1ccc(/N=c2\[nH]c(=O)c(F)c3n2C(c2cc(F)cc(F)c2)CC3)c(C)n1 (stereo not drawn) [Compound I-0095] was tested, and the IC50 was 10 to 100 nM.
